Experimental data as given in ChEMBL document CHEMBL1201862, “PubChem BioAssay data set” (2004).
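These data come from cells grown in 96-well plates and exposed to compound for 48 hours at five concentrations. The concentration for 50% growth inhibition is given as GI50.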 Activity calls are given as the source filed them. Rule as the data show it: active = GI50 up to about 1.1 µM and inactive = higher.

Experiments:
Assay in all cases: NCI anticancer screen, dose series, 48 h
HCC 2998 = system: HCC 2998
OVCAR-8 = system: OVCAR-8
786-0 = system: 786-0
EKVX = system: EKVX
COLO 205 = system: COLO 205
A498 = system: A498
NCI-H460 = system: NCI-H460
CCRF-CEM = system: CCRF-CEM
OVCAR-3 = system: OVCAR-3
A549 = system: A549
SF-295 = system: SF-295
HL-60 = system: HL-60
SNB-19 = system: SNB-19
HCT-15 = system: HCT-15
MDA-MB-435 = system: MDA-MB-435
SNB-75 = system: SNB-75
SK-MEL-28 = system: SK-MEL-28
MCF7 = system: MCF7
BT-549 = system: BT-549
TK-10 = system: TK-10

Structure (SMILES)	GI50 (HCC 2998)	GI50 (OVCAR-8)	GI50 (786-0)	GI50 (EKVX)	GI50 (COLO 205)	GI50 (A498)	GI50 (NCI-H460)	GI50 (CCRF-CEM)	GI50 (OVCAR-3)	GI50 (A549)	GI50 (SF-295)	GI50 (HL-60)	GI50 (SNB-19)	GI50 (HCT-15)	GI50 (MDA-MB-435)	GI50 (SNB-75)	GI50 (SK-MEL-28)	GI50 (MCF7)	GI50 (BT-549)	GI50 (TK-10)
O=S(=O)(SC1=NCCN1)c1cccc2ccccc12	> 10 µM (inactive)	28.8 µM (inactive)	25.4 µM (inactive)	30.1 µM (inactive)	17.8 µM (inactive)	26.1 µM (inactive)	22.7 µM (inactive)	21.8 µM (inactive)	44 µM (inactive)	22.8 µM (inactive)	24.1 µM (inactive)	> 10 µM (inactive)	28.7 µM (inactive)	35.3 µM	29.6 µM (inactive)	13.8 µM (inactive)	47 µM (inactive)	30.9 µM (inactive)	22.9 µM (inactive)	–
CSc1c(C(=O)Nc2ccc(C)cc2)c(N)nn1-c1ccccc1	58.3 µM (inactive)	–	19.9 µM (inactive)	49.4 µM (inactive)	> 100 µM (inactive)	23.1 µM (inactive)	3.55 µM (inactive)	> 100 µM (inactive)	> 100 µM (inactive)	27.3 µM (inactive)	48.8 µM (inactive)	> 100 µM (inactive)	26.7 µM (inactive)	> 100 µM	> 100 µM (inactive)	–	55.1 µM (inactive)	> 100 µM (inactive)	43.2 µM (inactive)	33.3 µM (inactive)
CCOC(=O)C1(C/C=C\CBr)CCCCCCCCCCC1=O (stereo not drawn)	16 µM (inactive)	14.5 µM (inactive)	6.34 µM (inactive)	14.9 µM (inactive)	17.5 µM (inactive)	13.9 µM (inactive)	15.5 µM (inactive)	5.69 µM (inactive)	2.09 µM (inactive)	18 µM (inactive)	16.9 µM (inactive)	–	14.3 µM (inactive)	16.7 µM	12 µM (inactive)	12.4 µM (inactive)	15.7 µM (inactive)	12.9 µM (inactive)	15.3 µM (inactive)	8.69 µM (inactive)
Cc1ccc(-c2c(C#N)c(O)n(NS(=O)(=O)c3ccccc3)c(=O)c2C#N)cc1	> 100 µM (inactive)	> 100 µM (inactive)	> 100 µM (inactive)	> 100 µM (inactive)	> 100 µM (inactive)	> 100 µM (inactive)	> 100 µM (inactive)	> 100 µM (inactive)	–	> 100 µM (inactive)	> 100 µM (inactive)	> 100 µM (inactive)	> 100 µM (inactive)	> 100 µM	> 100 µM (inactive)	> 100 µM (inactive)	> 100 µM (inactive)	> 100 µM (inactive)	> 100 µM (inactive)	> 100 µM (inactive)
COc1ccc2c3c([nH]c2c1)[C@H]1C[C@H]2[C@H](C[C@@H](O)[C@H](OC)[C@H]2C(=O)O)CN1CC3	> 100 µM (inactive)	> 100 µM (inactive)	> 100 µM (inactive)	> 100 µM (inactive)	> 100 µM (inactive)	> 100 µM (inactive)	> 100 µM (inactive)	> 100 µM (inactive)	> 100 µM (inactive)	> 100 µM (inactive)	> 100 µM (inactive)	–	> 100 µM (inactive)	> 100 µM	> 100 µM (inactive)	> 100 µM (inactive)	> 100 µM (inactive)	> 100 µM (inactive)	> 100 µM (inactive)	> 100 µM (inactive)
O=C1c2scnc2-c2nccc3c2c1nc1ccccc13 [KUANONIAMINE A]	1.15 µM (inactive)	0.226 µM (active)	1.21 µM (inactive)	2.92 µM (inactive)	1.31 µM (inactive)	1.26 µM (inactive)	0.372 µM (active)	0.416 µM (active)	< 0.0134 µM (active)	1.51 µM (inactive)	1.58 µM (inactive)	–	0.389 µM (active)	0.207 µM	0.191 µM (active)	0.94 µM (active)	1.65 µM (inactive)	0.299 µM (active)	1.25 µM (inactive)	1.46 µM (inactive)
